Results published in patent publication US11459323B2, “Monocyclic β-lactam compound for treating bacterial infection” (MEDSHINE DISCOVERY INC., priority 2018, dated 2022).
In brackets after ≈: the same amount, converted by molar mass.

Columns and labels:
A. baumannii ATCC 17978 = test: MIC by micro-liquid dilution method (CLSI); type: cell-based; settings: Acinetobacter baumannii; A. baumannii ATCC17978; read-out: MIC
[1] = tested on: E. coli NCTC 13476 (IMP-1 type); test: MIC by micro-liquid dilution method (CLSI); type: cell-based; settings: Escherichia coli; E. coli NCTC13476; read-out: MIC
Text: (§1) Three strains of Klebsiella pneumonia, K. pneumoniae ATCC BAA-205 (TEM-1/SHV-1/SHV-12), K. pneumoniae ATCC BAA-1705 (KPC-2), K. pneumoniae ATCC BAA-2470 (NDM-1); three strains of Pseudomonas aeruginosa, P. aeruginosa NCTC13437 (VIM-10; VEB-1), P. aeruginosa PA 14 and P. aeruginosa ATCC 35151; four strains of Escherichia coli, E. coli NCTC 13476 (IMP-1 type), E. coli ATCC BAA-2523 (OXA-48), E. coli MG1655Δtol C, E. coli ATCC 25922; one strain of Acinetobacter baumannii, A. baumannii ATCC 17978 and one strain of Staphylococcus aureus, S. aureus NRS384 were used to determine the minimum inhibitory concentration (MIC) of the compounds by micro-liquid dilution method according to the Institute of Clinical and Laboratory Standard (CLSI) requirements.

E. coli MG1655Δtol C = test: MIC by micro-liquid dilution method (CLSI); type: cell-based; settings: Escherichia coli
Text: as §1

P. aeruginosa PA 14 = test: MIC by micro-liquid dilution method (CLSI); type: cell-based; settings: Pseudomonas aeruginosa, PA14; P. aeruginosa PA 14; read-out: MIC
Text: as §1

[2] = tested on: E. coli ATCC BAA-2523 (OXA-48); test: MIC by micro-liquid dilution method (CLSI); type: cell-based; settings: Escherichia coli, ATCCBAA2523; E. coli ATCCBAA-2523; read-out: MIC
Text: as §1

[3] = Body weight of mice in Pseudomonas aeruginosa lung infection experiment (1); type: in vivo, CD-1 (ICR) mice; settings: Aztreonam group (400 mg/kg.day, ip)
Method: CD-1 (ICR) mice, provided by Beijing Charles River Laboratory Animal Technology Co., Ltd., weighing 23-27 g, 7 weeks old, female, a total of 64 mice.
The mice were weighed every day after the start of the experiment and the weight changes were recorded.
Graphpad Prism mapping software was used to make scatter plots of lung tissue CFU. SPSS19.0 software was used to count CFU and average body weight, and analysis of variance was used to analyze differences between groups.

[4] = tested on: Pseudomonas aeruginosa PA14; test: Lungs of immunosuppressed mice infected with Pseudomonas aeruginosa (1), lung bacterial load; type: in vivo; settings: 24 hours after infection, total dosage 400 mg/kg, day, ip at 2 h, 4 h, 6 h, 8 h
Method: Pseudomonas aeruginosa PA14. 64 mice were intraperitoneally injected with 150 mg/kg cyclophosphamide on the first day and the fourth day to give immunosuppressed mice. […] [table] The mice were injected with 50 μL of bacterial solution (2×10^3 CFU) through the airway. 2 hours after the infection, 4 mice in the model group was sacrificed by removing cervical vertebra. Two hours after infection, the drugs were administered by groups, and the mice were administered intraperitoneally once at 2 hours, 4 hours, 6 hours, and 8 hours, a total of 4 times. Mice of each group were sacrificed by removing cervical vertebra 24 hours after infection, lung and kidney tissues were taken aseptically and put into sterilized tissue homogenate tubes, weighed, and an appropriate amount of normal saline (NS) was added, the mixture was homogenized by a homogenizer for 1 min, the lung tissues of the model group were diluted 10^4, 10^5, 10^6 times, the lung tissues of each administration group were diluted 10, 100 times, the kidney tissues of the model group were diluted 10^2, […], 10^4 times, and the lung tissues of each administration group were diluted 10 times, the obtained mixtures were coated on TSA plates using spiral coater, then incubated at 37° C. overnight, and the CFU was counted with a colony counter. Graphpad Prism mapping software was used to make scatter plots of lung tissue CFU. SPSS19.0 software was used to count CFU and average body weight, and analysis of variance was used to analyze differences between groups.

[5] = tested on: K. pneumoniae ATCC BAA-1705 (KPC-2); test: MIC by micro-liquid dilution method (CLSI); type: cell-based, Klebsiella pneumonia; settings: Klebsiella pneumoniae, ATCCBAA1705
[6] = tested on: K. pneumoniae ATCC BAA-205 (TEM-1/SHV-1/SHV-12); test: MIC by micro-liquid dilution method (CLSI); type: cell-based, Klebsiella pneumonia; settings: Klebsiella pneumoniae, ATCCBAA205
[7] = tested on: K. pneumoniae ATCC BAA-2470 (NDM-1); test: MIC by micro-liquid dilution method (CLSI); type: cell-based, Klebsiella pneumonia; settings: Klebsiella pneumoniae, ATCCBAA2470

SMILES | MIC (A. baumannii ATCC 17978) [µg/mL] | MIC [1] [µg/mL] | MIC (E. coli MG1655Δtol C) [µg/mL] | MIC (P. aeruginosa PA 14) [µg/mL] | MIC [2] [µg/mL] | Body weight on the fifth day [3] [g] | Body weight on the first day [3] [g] | Body weight on the fourth day [3] [g] | LOG10-of bacterial load [4] | MIC [5] [µg/mL] | MIC [6] [µg/mL] | MIC [7] [µg/mL]
C[C@H]1[C@H](NC(=O)/C(=N\OC(C)(C)C(=O)O)c2csc(N)n2)C(=O)N1S(=O)(=O)O [Aztreonam, reference compound] | 32 (≈ 73.5 µM) | 0.25 (≈ 0.574 µM) | ≤ 0.125 | 8 (≈ 18.4 µM) | 16 (≈ 36.7 µM) | 28.02 ± 1.08 | 27.16 ± 1.74 | 27.80 ± 2.37 | 1.62 ± 2.22 |  |  | 
C[C@@H](O)[C@H]1C(=O)N2C(C(=O)O)=C(S[C@@H]3CN[C@H](C(=O)N(C)C)C3)[C@H](C)[C@H]12 [Meropenem, reference compound] |  | 32 (≈ 83.4 µM) | ≤ 0.125 | 0.5 (≈ 1.3 µM) | 2 (≈ 5.22 µM) |  |  |  |  | 128 (≈ 334 µM) | ≤ 0.125 | > 128
